Data set [1] has as its system A673. Kind of data set: MTT cell proliferation assay, A673. The class given is cell-based. As to conditions: Homo sapiens, A673, Ewing's Sarcoma, read-out: Cell killing activity IC50. As to the method: (§1) Cells were plated in 96-well tissue culture plates at a density of 1 × 10^3 cells/well, allowed to attach 24 h, and then left untreated or treated with growth medium containing different concentrations of the tested RCn compounds previously dissolved in PBS. After different time periods the cell vitality was determined by MTT assay according to the manufacture’s instruction (Promega). Results are reported as the micromolar concentration of RCn reducing cell survival to 50% (IC50).

The test system of data set [2] is 143.98.2. Kind of data set: MTT cell proliferation assay, 143.98.2. The class given is cell-based. To be noted: Homo sapiens, 143.98.2, Osteosarcoma, read-out: Cell killing activity IC50. As to the method: as §1
Background: Tetrazolium assays rely on reduction of a dye to a coloured formazan, in cell work by metabolically active cells.

Data set [3] has as its system SK-N-AS. Kind of data set: MTT cell proliferation assay, SK-N-AS. Format: cell-based. To be noted: Homo sapiens, Neuroblastoma, read-out: Cell killing activity IC50. The procedure: as §1
Data set [4] has as its system S462TY. The experiment in a line: MTT cell proliferation assay, S462TY. Format: cell-based. As to conditions: Homo sapiens, Malignant Peripheral Nerve Sheath Tumor, read-out: Cell killing activity IC50. The procedure: as §1
Data set [5] concerns Ramos. Kind of data set: MTT cell proliferation assay, Ramos. Format: cell-based. As to conditions: Homo sapiens, Lymphoma, read-out: Cell killing activity IC50. The procedure: as §1
The test system of data set [6] is Rh41. The experiment in a line: MTT cell proliferation assay, Rh41. The class given is cell-based. To be noted: Homo sapiens, Rh41, Rhabdomyosarcoma, read-out: Cell killing activity IC50. As to the method:
as §1

Data set [7] deals with CHLA-20 cells. Kind of data set: Cell killing activity of drugs complexed with RC16 (MTT). The class given is cell-based, human. To be noted: CHLA-20, free drug at concentration corresponding to that present in the complex, 48 h, percent of untreated cells. The procedure: (§2) Aqueous solutions of RC16 (10 mM, 1 mL) were mixed with ethanol solutions of Doxorubicin, Paclitaxel or Etoposide (1 mM, 1 mL). After stirring 12 h at 25 C the mixtures were dialyzed through 5000 Da MW cutoff dialysis membranes against 100 ml water by changing the external medium every 8 h for 3 days. The RC16-drug complex collected after dialysis was freeze-dried and the solid residue obtained was spectrophotometrically analysed to estimate the percentage of drug in the final product. The anticancer activity of each complexed drug was evaluated in CHLA-20 as the difference between the activity of the complex and the pure RC16 at the same concentration of the complex.

A short description of data set [8]: Encapsulation of drugs in RC16 micelles. Format: physicochemical. As to conditions: drug complexed in RC16 micelles, after dialysis and freeze-drying. As to the method: as §2

We go through 9 compounds from article PMC5040747, “Preparation and Evaluation of a Novel Class of Amphiphilic Amines as Antitumor Agents and Nanocarriers for Bioactive Molecules” (Pharmaceutical Research, 2016).

What is called IC50 is the concentration that inhibits the measured activity by half.

Read-outs that look alike come from different tables or passages of the source.

For `CCCCCC1CN2CCCN3CCCCCC132` (stereo not drawn) [RC7, 2-pentyl-4,8-diazatricyclo[6.5.0.0^1,^4]tridecane], the IC50 amounted to 5730 nM in data set [1] (24 h); 4110 nM in data set [1] (48 h); 4510 nM in data set [2] (24 h); 3780 nM in data set [2] (48 h); 5210 nM in data set [3] (24 h); 3430 nM in data set [3] (48 h). The IC50 in data set [4] (24 h) stood at 5620 nM; in data set [4] (48 h), 3900 nM; in data set [5] (24 h), 4550 nM; in data set [5] (48 h), 3120 nM; in data set [6] (24 h) it was 5780 nM; in data set [6] (48 h), 4010 nM.
As to `CCCCCCCCCCCCCCCCC1CN2CCCN3CCCCCC132` (stereo not drawn) [RC18, 2-hexadecyl-4,8-diazatricyclo[6.5.0.0^1,^4]tridecane], the IC50 was found to be 1030 nM in data set [1] (24 h); 980 nM in data set [1] (48 h); 920 nM in data set [2] (24 h); 650 nM in data set [2] (48 h); 1230 nM in data set [3] (24 h); 750 nM in data set [3] (48 h). In addition, the concentration for half-maximal inhibition (IC50) came to 1670 nM in data set [4] (24 h); 880 nM in data set [4] (48 h); 830 nM in data set [5] (24 h); 170 nM in data set [5] (48 h); 1010 nM in data set [6] (24 h); 820 nM in data set [6] (48 h).
For `CC(=O)O[C@H]1C(=O)[C@@]2(C)[C@H]([C@H](OC(=O)c3ccccc3)[C@]3(O)C[C@H](OC(=O)[C@H](O)[C@@H](NC(=O)c4ccccc4)c4ccccc4)C(C)=C1C3(C)C)[C@]1(OC(C)=O)CO[C@@H]1C[C@@H]2O` [PTX, Paclitaxel], in data set [7], the “Cell viability, % CTR (free drug)” value was found to be 56.93 ± 4.61 % CTR. Besides, the “Encapsulation efficiency (weight percentage of drug in the final complex)” value in data set [8] is 1.8 ± 0.73%.
Take `CCCCCCCCCCCCCCCCCCC1CN2CCCN3CCCCCC132` (stereo not drawn) [RC20, 2-octadecyl-4,8-diazatricyclo[6.5.0.0^1,^4]tridecane]: the IC50 was determined as 1220 nM in data set [1] (24 h); 1350 nM in data set [1] (48 h); 1090 nM in data set [2] (24 h); 830 nM in data set [2] (48 h); 1600 nM in data set [3] (24 h); 900 nM in data set [3] (48 h). The half-inhibitory concentration (IC50) was 1830 nM in data set [4] (24 h); 1160 nM in data set [4] (48 h); 970 nM in data set [5] (24 h); 200 nM in data set [5] (48 h); 1680 nM in data set [6] (24 h); 1120 nM in data set [6] (48 h).
For the compound `COc1cccc2c1C(=O)c1c(O)c3c(c(O)c1C2=O)C[C@@](O)(C(=O)CO)C[C@@H]3O[C@H]1C[C@H](N)[C@H](O)[C@H](C)O1` [DOXO, Doxorubicin], in data set [7], the “Cell viability, % CTR (free drug)” value amounted to 27.62 ± 0.55 % CTR. Further, in data set [8], the “Encapsulation efficiency (weight percentage of drug in the final complex)” value was 2.3 ± 0.78%.
Taken in the same sequence, the figures for `COc1cc([C@@H]2c3cc4c(cc3[C@@H](O[C@@H]3O[C@@H]5CO[C@@H](C)O[C@H]5[C@H](O)[C@H]3O)[C@H]3COC(=O)[C@H]23)OCO4)cc(OC)c1O` [ETO, Etoposide] were 65.80 ± 5.76 % CTR and 1.0 ± 0.59%.
Consider `CCCCCCCCCCC1CN2CCCN3CCCCCC132` (stereo not drawn) [RC12, 2-decyl-4,8-diazatricyclo[6.5.0.0^1,^4]tridecane], for which the IC50 in data set [1] (24 h) is 1820 nM; in data set [1] (48 h), 1650 nM; in data set [2] (24 h), 1980 nM; in data set [2] (48 h) it was 1240 nM; in data set [3] (24 h), 1870 nM; in data set [3] (48 h) it was 710 nM. For the same compound, the IC50 is 2000 nM in data set [4] (24 h); 1090 nM in data set [4] (48 h); 1180 nM in data set [5] (24 h); 740 nM in data set [5] (48 h); 1750 nM in data set [6] (24 h); 1160 nM in data set [6] (48 h).
For the compound `CCCCCCCCC1CN2CCCN3CCCCCC132` (stereo not drawn) [RC10, 2-octyl-4,8-diazatricyclo[6.5.0.0^1,^4]tridecane], the half-maximal inhibitory concentration (IC50) in data set [1] (24 h) is 2600 nM; in data set [1] (48 h), 2020 nM; in data set [2] (24 h), 2550 nM; in data set [2] (48 h) it was 1680 nM; in data set [3] (24 h), 2140 nM; in data set [3] (48 h) it was 1560 nM. Moreover, the IC50 in data set [4] (24 h) turned out to be 2390 nM; in data set [4] (48 h), 1780 nM; in data set [5] (24 h) it was 2100 nM; in data set [5] (48 h) it was 1030 nM; in data set [6] (24 h), 2850 nM; in data set [6] (48 h) it was 2030 nM.
For the compound `CCCCCCCCCCCCC1CN2CCCN3CCCCCC132` (stereo not drawn) [RC14, 2-dodecyl-4,8-diazatricyclo[6.5.0.0^1,^4]tridecane], the IC50 came out at 1270 nM in data set [1] (24 h); 1130 nM in data set [1] (48 h); 1310 nM in data set [2] (24 h); 780 nM in data set [2] (48 h); 1200 nM in data set [3] (24 h); 630 nM in data set [3] (48 h). Moreover, the IC50 was 1810 nM in data set [4] (24 h); 950 nM in data set [4] (48 h); 960 nM in data set [5] (24 h); 220 nM in data set [5] (48 h); 1360 nM in data set [6] (24 h); 970 nM in data set [6] (48 h).
